Reference: publication PMC3481155, “AhR activation underlies the CYP1A autoinduction by A-998679 in rats” (Frontiers in Genetics, 2012)

Experiments:
rat Cyp 2D2 = target: T1, rat Cyp 2D2 (Rattus norvegicus, UniProt P10634); test: Recombinant rat Cyp phenotype profiling, 2D2; assay type: in vitro ADME; settings: 60 min
T1 construct: purchased BD Gentest; host or cells: baculovirus infected insect cells
Protocol: (§1) Identification of the drug metabolizing enzymes (DMEs) of A-998679 was studied in cDNA expressed recombinant enzymes prepared from baculovirus infected insect cells over-expressing rat Cyp isoforms (BD Gentest, Woburn, MA) as listed in Table 2. Incubations were conducted in duplicate using Supersomes. The incubation mixture contained 100 pmol/ml of enzymes, except for Cyp1a1 (200 pmol/ml), 0.1 or 0.21 μM of [^3H]A-998679 in 100 mM phosphate buffer (pH 7.4). Reactions were initiated with the addition of NADPH at a final concentration of 1 mM and incubated at 37°C for 60 min. At the end of the incubation period, the incubations were terminated by the addition of acetonitrile/ethanol (50/50, v/v) solution. Insect control samples lacking expressed enzyme were used as negative control. The degree of metabolism of A-998679 was assessed by percent of parent remaining using the radio-HPLC method described below.
(§2) Radiolabeled components from the above assays were profiled following separation by HPLC with on line radioflow detector. The system consisted of an Agilent 1100 Series quaternary pump and autosampler connected to a Packard 500TR flow scintillation detector. The data were processed using the Radiomatic™ Flo-one® software v3.65. The scintillant (Perkin Elmer FLO-SCINT™ III) flow was maintained at 3 ml/min. […]

rat Cyp 2E1 = target: T2, rat Cyp 2E1 (Rattus norvegicus, UniProt P05182); test: Recombinant rat Cyp phenotype profiling, 2E1; assay type: in vitro ADME; settings: 60 min
T2 construct: purchased BD Gentest; host or cells: baculovirus infected insect cells
Protocol: as §1, §2

AhR gene battery = test: Rat liver mRNA profiling of the AhR gene battery; assay type: in vivo; settings: 5 days
Protocol: All animal experiments were conducted in accordance with the Guiding Principles in the Use of Animals in Toxicology (http://www.toxicology.org/ai/air/air6.asp) and were approved by Abbott's Institutional Animal Care and Use Committee (IACUC). Male Sprague-Dawley rats [Crl:CD®(SD)IGS BR], weighing ~250 g at study initiation were obtained from Charles River Laboratories, Inc. (Wilmington, MA). Rats were housed singly in ventilated, stainless steel, wire-bottom hanging cages and fed non-certified Rodent Chow (Harlan Labs, Madison, WI), and water ad libitum and acclimated for at least 5 days after arrival. […] Serum clinical chemistry parameters were quantified using an Aeroset Clinical Chemistry Analyzer (Abbott Laboratories, Abbott Park, IL) and included alanine amino transferase (ALT), aspartate amino transferase (AST), gamma glutamyltransferase (GGT), and alkaline phosphatase (ALP) activities.
Frozen liver or jejunum were immediately added to 4 ml of TRIzol reagent (Invitrogen Life Technologies) and homogenized using a Polytron 300D homogenizer (Brinkman Instruments, Westbury, NY). […] Nucleic acid concentration was determined by OD 260 nm (Smart-Spec, Bio-Rad Laboratories, Hercules, CA), and RNA integrity was evaluated using an Agilent 2100 bioanalyzer (Agilent Technologies, Foster City, CA). […]

rat Cyp 2A2 = target: T3, rat Cyp 2A2 (Rattus norvegicus, UniProt P15149); test: Recombinant rat Cyp phenotype profiling, 2A2; assay type: in vitro ADME; settings: 60 min
T3 construct: purchased BD Gentest; host or cells: baculovirus infected insect cells
Protocol: as §1, §2

T2 sequence (P05182 whole entry): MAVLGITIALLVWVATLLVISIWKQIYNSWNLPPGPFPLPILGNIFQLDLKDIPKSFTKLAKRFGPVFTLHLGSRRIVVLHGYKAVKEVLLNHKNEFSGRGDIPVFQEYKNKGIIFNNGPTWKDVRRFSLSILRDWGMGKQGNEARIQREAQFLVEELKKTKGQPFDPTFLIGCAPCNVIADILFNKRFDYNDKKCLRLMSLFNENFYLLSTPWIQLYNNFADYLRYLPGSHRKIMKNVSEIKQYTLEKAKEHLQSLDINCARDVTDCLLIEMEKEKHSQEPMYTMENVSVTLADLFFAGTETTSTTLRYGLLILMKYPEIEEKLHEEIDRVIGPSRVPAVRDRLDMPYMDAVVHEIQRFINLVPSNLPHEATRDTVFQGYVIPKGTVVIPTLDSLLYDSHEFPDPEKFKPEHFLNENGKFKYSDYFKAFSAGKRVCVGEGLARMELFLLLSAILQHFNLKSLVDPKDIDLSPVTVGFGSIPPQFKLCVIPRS
T1 sequence (P10634 whole entry): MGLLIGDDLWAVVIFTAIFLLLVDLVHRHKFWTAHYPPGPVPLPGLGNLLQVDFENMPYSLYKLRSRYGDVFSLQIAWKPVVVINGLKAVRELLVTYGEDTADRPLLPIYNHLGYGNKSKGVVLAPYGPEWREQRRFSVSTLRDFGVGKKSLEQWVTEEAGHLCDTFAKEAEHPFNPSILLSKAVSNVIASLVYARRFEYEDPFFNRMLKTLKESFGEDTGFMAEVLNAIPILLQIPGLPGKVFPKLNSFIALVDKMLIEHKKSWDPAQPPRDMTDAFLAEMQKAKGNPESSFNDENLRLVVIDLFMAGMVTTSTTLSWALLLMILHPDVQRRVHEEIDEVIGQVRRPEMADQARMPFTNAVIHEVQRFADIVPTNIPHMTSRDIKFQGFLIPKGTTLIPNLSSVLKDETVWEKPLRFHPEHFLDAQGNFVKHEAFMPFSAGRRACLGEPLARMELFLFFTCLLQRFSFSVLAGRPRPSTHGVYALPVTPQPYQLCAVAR
T3 sequence (P15149 whole entry): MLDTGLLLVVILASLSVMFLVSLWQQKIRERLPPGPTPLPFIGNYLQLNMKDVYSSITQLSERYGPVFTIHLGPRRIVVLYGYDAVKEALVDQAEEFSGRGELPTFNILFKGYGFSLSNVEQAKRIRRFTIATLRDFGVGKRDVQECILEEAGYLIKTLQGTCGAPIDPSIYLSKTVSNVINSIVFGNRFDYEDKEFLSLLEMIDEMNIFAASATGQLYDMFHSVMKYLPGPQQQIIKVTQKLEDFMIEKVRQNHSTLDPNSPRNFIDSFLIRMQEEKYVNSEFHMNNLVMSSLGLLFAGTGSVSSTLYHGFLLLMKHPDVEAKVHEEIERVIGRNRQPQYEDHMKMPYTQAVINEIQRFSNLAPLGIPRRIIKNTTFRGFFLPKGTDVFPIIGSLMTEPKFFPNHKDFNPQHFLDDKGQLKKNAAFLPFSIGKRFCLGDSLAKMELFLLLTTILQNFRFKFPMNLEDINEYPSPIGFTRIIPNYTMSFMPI

## N#Cc1cccc(-c2noc(-c3cccnc3)n2)c1 [A-998679, 3-(5-pyridin-3-yl-1,2,4-oxadiazol-3-yl) benzonitrile]
Rat Cyp 2D2; recombinant rat Cyp 2D2, 0.10 μM
  % parent remaining: 100%
Rat Cyp 2D2; recombinant rat Cyp 2D2, 0.21 μM
  % parent remaining: 98.1%
Rat Cyp 2E1; recombinant rat Cyp 2E1, 0.10 μM
  % parent remaining: 95.5%
Rat Cyp 2E1; recombinant rat Cyp 2E1, 0.21 μM
  % parent remaining: 91.9%
AhR gene battery
  expression of members of the AhR gene battery (Gst isoforms, Nqo1, Aldh, AhR) in rat liver: upregulated
Rat Cyp 2A2; recombinant rat Cyp 2A2, 0.10 μM
  % parent remaining: 90.2%
Rat Cyp 2A2; recombinant rat Cyp 2A2, 0.21 μM
  % parent remaining: 77.8%
